Common to all, as to assay type: cell-based, mouse
Assay [1] relates to C2Cl2 myotube cells. The assay can be described thus: Effect on intracellular ATP concentration (luciferin-luciferase system). Particulars: 6 hours or 12 hours. Here is the method:
(§1) The amber extract obtained through extraction by the method of Example 1 was analyzed for its action using myoblasts C2Cl2. The C2Cl2 cells are cells established from mouse regenerating muscles (striated muscles) and are considered to be derived from muscle satellite cells. The myoblasts, when cultured in a differentiation inducing medium, are fused and differentiated into myotube cells.
(§2) The C2Cl2 myoblasts were cultured in Dulbecco's modified Eagle medium (DMEM) supplemented with 10% FBS, penicillin (100 Us/ml), and streptomycin ([…]) under conditions of 37° C. and 5% CO2. Differentiation into myotube cells was induced by medium replacement with DMEM containing 2% horse serum when the cells reached 95% confluency. The experiment was carried out using the differentiated C2Cl2 myotube after 5 to 7 days from the induction of differentiation.
Intracellular ATP levels were measured using a luciferin-luciferase system. C2Cl2 cells were inoculated at 0.5×10^4 cells/well to a 96-well plate and cultured at 37° C. for 48 hours until confluent. After induction of differentiation for 5 days, the cells were treated with the amber extract (25 or 50 μg/mL) prepared by the method of Example 1 or succinic acid (2.5 or 5 μg/mL) for 6 hours or 12 hours. The luminescence of each well was measured at 480/530 nm (excitation/luminescence) using a microplate reader (Synergy H1, BioTek Instruments).

Assay [2] relates to C2Cl2 myotube cells. The assay is described as follows: Detection of mitochondrial ROS. The note with it: 1, 2.5, or 5 μg/mL, 24 hours. Here is the method:
as §1, §2
Accordingly, in order to confirm this, mitochondrial ROS was detected. C2Cl2 cells were inoculated at 0.5×10^4 cells/well to a 96-well plate and cultured at 37° C. for 48 hours until confluent. After induction of differentiation for 5 days in a differentiation inducing medium, the cells were treated with the amber extract ([…]) or succinic acid (1, 2.5, or 5 μg/mL) for 24 hours. The mitochondrial ROS was measured at 485/565 nm (excitation/fluorescence) using Mitochondrial ROS Detection Assay Kit (Cayman Chemical Company).

Assay [3] deals with C2Cl2 myotube cells. The assay is described as follows: Detection of mitochondrial membrane potential (JC-1). The note with it: 1, 2.5, or 5 μg/mL, 24 hours. As for the experimental part:
as §1, §2
Mitochondrial membrane potential serving as an indicator for mitochondrial activation was also analyzed. C2Cl2 cells were inoculated at 0.5×10^4 cells/well to a 96-well plate and cultured at 37° C. for 48 hours until confluent. […] The mitochondrial membrane potential was measured at green: 485/535 nm (excitation/fluorescence) and red: 535/595 nm (excitation/fluorescence) using JC-1 MitoMP Detection Kit (Dojindo Laboratories).

Results on one compound are retold here after patent publication US20260240906A1, “MUSCLE MASS INCREASING AGENT AND ENDURANCE IMPROVING AGENT” (KOHAKU BIO TECHNOLOGY CO., LTD., priority 2023, published 2026).

Turning to `O=C(O)CCC(=O)O` [succinic acid], the ATP concentration result in assay [1] (2.5 μg/mL) and in assay [1] (5 ug/mL) was “no change” throughout. In addition, the “mitochondrial activation (mitochondrial ROS)” value in assay [2] is recorded as “no mitochondrial activation”. Moreover, in assay [3], the “mitochondrial activation (membrane potential)” value was “no mitochondrial activation”.
